Test results as given in patent publication US9549932B2, “2-(morpholin-4-yl)-1,7-naphthyridines” (BAYER PHARMA AKTIENGESELLSCHAFT, priority 2014, dated 2017).
Read-outs that look alike come from different tables or passages of the source.

Legend:
[1] = molecular target: full-length human ATR protein (Homo sapiens (Human), UniProt Q13535); assay: Binding assay ATR (TR-FRET tracer displacement); conditions: TR-FRET
Method in brief: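 Full-length human GST-ATR co-purified with ATRIP, pre-complexed 30 min at 22 °C with anti-GST-Tb antibody, then pre-bound with compound 10 min. Tracer A or B added (2 µl of 100 nM solution), 30 min at 22 °C.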

[2] = tested on: NCI-H460 cells; assay: Proliferation assay NCI-H460 (crystal violet); conditions: read-out: Inhibition of NCI-H460 cell proliferation, 4 days incubation
Description: (§1) After 24 hours, the cells of one plate (zero plate) were dyed with crystal violet (see below), whereas the medium of the other plates was replaced with fresh culture medium (200 μl) to which the test substances were added in various concentrations (0 μM, and also in the range of 0.001-10 μM; the final concentration of the solvent dimethyl sulphoxide was 0.1 or 0.5%). The cells were incubated for 4 days in the presence of the test substances. […] After washing the fixed cells three times with water, the plates were dried at room temperature. The cells were stained by adding 100 μl/measurement point of a 0.1% strength crystal violet solution (pH adjusted to pH 3 by adding acetic acid). After washing the cells three times with water, the plates were dried at room temperature. The dye was dissolved by adding 100 μl/measurement point of a 10% strength acetic acid solution. […] The percentage change in cell growth was calculated by normalizing the measured values to the absorbance values of the zero plate (=0%) and the absorbance of the untreated (0 μM) cells (=100%). The IC50 values were determined by means of a four parameter fit.

[3] = tested on: B16F10 cells; assay: Proliferation assay B16F10 (crystal violet); conditions: read-out: Inhibition of B16F10 cell proliferation, 4 days incubation
Description: as §1

[4] = tested on: DU145 cells; assay: Proliferation assay DU145 (crystal violet); conditions: read-out: Inhibition of DU145 cell proliferation, 4 days incubation
Description: as §1

[5] = tested on: HeLa cells; assay: Proliferation assay HeLa (crystal violet)
Description: as §1

[6] = tested on: Caco-2 cells; assay: Proliferation assay Caco-2 (crystal violet); format: cell-based, human; conditions: 4 days incubation, read-out: Inhibition of Caco-2 cell proliferation
Description: as §1

[7] = tracer A, read-out: ATR binding (tracer A) IC50
[8] = tracer B, read-out: ATR binding (tracer B) IC50

full-length human ATR protein, sequence (Q13535 other isoform, or with tags, fused parts or gaps): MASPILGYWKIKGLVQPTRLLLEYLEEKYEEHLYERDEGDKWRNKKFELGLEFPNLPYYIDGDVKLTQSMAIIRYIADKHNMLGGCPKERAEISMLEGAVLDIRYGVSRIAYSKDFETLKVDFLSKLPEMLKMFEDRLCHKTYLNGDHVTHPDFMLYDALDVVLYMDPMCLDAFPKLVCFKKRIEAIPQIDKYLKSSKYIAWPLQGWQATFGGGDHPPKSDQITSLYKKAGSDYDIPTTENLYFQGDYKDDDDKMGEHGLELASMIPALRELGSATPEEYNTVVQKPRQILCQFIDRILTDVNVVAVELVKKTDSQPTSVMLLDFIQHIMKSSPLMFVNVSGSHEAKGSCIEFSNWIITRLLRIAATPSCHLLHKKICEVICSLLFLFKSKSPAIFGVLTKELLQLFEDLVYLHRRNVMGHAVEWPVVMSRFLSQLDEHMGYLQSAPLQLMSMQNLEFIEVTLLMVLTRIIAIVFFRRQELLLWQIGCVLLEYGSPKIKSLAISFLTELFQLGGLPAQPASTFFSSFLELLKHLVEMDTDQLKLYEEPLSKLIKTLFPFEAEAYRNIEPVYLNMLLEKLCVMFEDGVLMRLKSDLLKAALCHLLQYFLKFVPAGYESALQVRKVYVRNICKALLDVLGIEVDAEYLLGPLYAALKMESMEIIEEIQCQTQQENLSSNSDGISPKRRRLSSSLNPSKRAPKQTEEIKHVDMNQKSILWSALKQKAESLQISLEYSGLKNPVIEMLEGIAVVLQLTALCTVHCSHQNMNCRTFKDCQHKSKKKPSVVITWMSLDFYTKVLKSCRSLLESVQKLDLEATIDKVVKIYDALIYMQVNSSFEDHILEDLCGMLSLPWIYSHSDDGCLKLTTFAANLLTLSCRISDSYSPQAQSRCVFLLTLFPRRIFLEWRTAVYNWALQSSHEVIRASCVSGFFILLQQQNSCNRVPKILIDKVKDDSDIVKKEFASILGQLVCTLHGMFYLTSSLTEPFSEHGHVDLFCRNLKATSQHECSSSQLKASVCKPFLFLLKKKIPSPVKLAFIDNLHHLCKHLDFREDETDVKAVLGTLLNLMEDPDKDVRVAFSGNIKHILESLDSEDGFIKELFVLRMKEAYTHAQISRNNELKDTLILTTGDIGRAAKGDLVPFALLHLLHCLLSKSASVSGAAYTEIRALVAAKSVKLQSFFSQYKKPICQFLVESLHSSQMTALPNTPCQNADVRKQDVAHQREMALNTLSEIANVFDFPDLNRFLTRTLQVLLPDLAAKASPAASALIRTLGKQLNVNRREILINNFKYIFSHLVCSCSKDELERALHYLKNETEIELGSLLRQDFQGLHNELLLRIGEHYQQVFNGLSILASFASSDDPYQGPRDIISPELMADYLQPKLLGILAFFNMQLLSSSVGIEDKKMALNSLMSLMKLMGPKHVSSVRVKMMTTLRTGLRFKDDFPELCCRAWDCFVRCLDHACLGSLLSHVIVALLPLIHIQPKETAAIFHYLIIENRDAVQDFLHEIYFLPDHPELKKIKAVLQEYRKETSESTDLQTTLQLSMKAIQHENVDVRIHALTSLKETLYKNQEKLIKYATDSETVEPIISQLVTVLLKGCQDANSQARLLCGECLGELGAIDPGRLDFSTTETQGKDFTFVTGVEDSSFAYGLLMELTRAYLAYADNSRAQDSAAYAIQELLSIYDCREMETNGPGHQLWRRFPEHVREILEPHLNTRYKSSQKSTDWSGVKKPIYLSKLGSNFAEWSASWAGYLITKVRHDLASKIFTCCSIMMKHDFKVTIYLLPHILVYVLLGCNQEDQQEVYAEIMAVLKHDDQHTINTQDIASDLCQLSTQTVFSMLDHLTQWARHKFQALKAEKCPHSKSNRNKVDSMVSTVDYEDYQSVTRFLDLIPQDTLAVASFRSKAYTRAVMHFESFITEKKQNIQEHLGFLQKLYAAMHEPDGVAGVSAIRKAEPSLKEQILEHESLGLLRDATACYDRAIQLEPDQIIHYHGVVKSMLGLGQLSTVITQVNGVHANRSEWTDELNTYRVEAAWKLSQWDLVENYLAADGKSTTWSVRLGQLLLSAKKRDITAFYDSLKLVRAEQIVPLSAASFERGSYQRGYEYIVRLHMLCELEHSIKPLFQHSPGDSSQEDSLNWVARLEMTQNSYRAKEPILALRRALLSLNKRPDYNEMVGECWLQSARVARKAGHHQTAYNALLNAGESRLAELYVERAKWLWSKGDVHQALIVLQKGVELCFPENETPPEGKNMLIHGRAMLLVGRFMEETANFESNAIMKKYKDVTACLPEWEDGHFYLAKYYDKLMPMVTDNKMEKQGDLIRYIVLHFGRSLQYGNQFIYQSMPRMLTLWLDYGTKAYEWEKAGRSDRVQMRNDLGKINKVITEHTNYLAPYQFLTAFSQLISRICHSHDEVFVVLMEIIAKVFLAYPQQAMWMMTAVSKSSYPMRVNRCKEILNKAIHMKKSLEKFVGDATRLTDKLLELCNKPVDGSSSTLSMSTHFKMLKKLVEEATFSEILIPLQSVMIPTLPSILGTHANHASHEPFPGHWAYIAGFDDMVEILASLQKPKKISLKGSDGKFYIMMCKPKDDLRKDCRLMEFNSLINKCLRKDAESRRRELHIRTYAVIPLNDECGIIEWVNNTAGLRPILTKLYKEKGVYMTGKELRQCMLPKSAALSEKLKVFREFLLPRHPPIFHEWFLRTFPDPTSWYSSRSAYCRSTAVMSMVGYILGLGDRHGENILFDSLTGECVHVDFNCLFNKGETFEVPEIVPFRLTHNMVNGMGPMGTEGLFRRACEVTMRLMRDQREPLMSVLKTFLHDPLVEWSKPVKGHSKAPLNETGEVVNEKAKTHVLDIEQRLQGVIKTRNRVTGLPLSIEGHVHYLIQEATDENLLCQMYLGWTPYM
full-length human ATR protein, sequence (Q8WXE1 other isoform, or with tags, fused parts or gaps partner): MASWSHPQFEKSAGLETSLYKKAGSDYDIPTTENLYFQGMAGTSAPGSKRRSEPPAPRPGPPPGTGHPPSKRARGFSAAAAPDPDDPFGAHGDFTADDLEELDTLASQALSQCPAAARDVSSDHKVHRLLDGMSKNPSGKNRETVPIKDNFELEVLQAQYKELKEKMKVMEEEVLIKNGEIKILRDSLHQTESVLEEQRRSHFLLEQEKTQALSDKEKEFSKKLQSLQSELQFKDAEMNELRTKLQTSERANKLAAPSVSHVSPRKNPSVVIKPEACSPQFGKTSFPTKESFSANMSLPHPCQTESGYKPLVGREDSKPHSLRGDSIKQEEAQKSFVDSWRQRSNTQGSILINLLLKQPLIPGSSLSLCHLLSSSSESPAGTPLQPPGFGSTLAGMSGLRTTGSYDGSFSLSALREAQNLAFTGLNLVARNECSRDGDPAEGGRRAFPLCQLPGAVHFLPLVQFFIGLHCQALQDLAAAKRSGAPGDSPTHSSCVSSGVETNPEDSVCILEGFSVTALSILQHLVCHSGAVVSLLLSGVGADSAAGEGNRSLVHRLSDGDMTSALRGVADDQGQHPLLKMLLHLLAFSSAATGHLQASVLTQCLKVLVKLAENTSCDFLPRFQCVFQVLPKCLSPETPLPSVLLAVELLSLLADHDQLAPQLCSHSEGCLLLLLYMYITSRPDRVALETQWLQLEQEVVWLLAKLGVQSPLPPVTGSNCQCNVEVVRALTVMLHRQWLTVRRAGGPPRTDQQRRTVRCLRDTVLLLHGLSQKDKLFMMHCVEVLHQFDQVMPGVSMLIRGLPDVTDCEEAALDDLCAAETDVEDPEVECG

Question: Which results are given for CS(=O)(=O)c1cc(N2CCOCC2)nc2c(-c3cc[nH]n3)nccc12 [Example 32]?
Answer: IC50 [1, 7]: 84.7 nM; IC50 [1, 8]: 36.7 nM; IC50 [2]: 1950 nM

Question: How did the IC50 [1, 7] turn out when CC(C)Oc1cc(N2CCOCC2)nc2c(-c3cc[nH]n3)nccc12 [Example 40, 4-isopropoxy-2-(morpholin-4-yl)-8-(1H-pyrazol-3-yl)-[1,7]naphthyridine] was run?
Answer: 125 nM

Question: And the IC50 [1, 8]?
Answer: 99 nM

Question: And the IC50 [3]?
Answer: > 3000 nM

Question: With O=S1(=O)CCCN1c1cc(N2CCOCC2)nc2c(-c3ccn[nH]3)nccc12 [Example 216, 4-(1,1-dioxido-1,2-thiazolidin-2-yl)-2-(morpholin-4-yl)-8-(1H-pyrazol-5-yl)-1,7-naphthyridine] as the molecule, how does the IC50 [1, 7] read?
Answer: 84.4 nM

Question: What about the IC50 [2] of the same molecule?
Answer: 1020 nM

Question: What about the IC50 [4] of the same molecule?
Answer: 1330 nM

Question: c1cc(-c2nccc3c(N4C[C@@H]5C[C@H]4CO5)cc(N4CCOCC4)nc23)[nH]n1 [Example 185, 2-(morpholin-4-yl)-4-[(1S,4S)-2-oxa-5-azabicyclo[2.2.1]hept-5-yl]-8-(1H-pyrazol-5-yl)-1,7-naphthyridine] was tested. Which IC50 [1, 7] did it give?
Answer: 852 nM

Question: What about the IC50 ([5]; Homo sapiens, HeLa, 96 h, read-out: Inhibition of HeLa cell proliferation, HeLa cells, 4 days incubation, crystal violet) of the same molecule?
Answer: > 3000 nM

Question: For “5-fluoro-2-{2-[(3R)-3-methylmorpholin-4-yl]-8-(1H-pyrazol-5-yl)-1,7-naphthyridin-4-yl}aniline [Example 190]”, which IC50 ([5]; read-out: Inhibition of HeLa cell proliferation, HeLa cells, 4 days incubation, crystal violet) is on record?
Answer: 334 nM

Question: CCOP(C)(=O)c1cc(N2CCOC[C@H]2C)nc2c(-c3ccn[nH]3)nccc12 (stereo partly drawn) [Example 125, Ethyl methyl{2-[(3R)-3-methylmorpholin-4-yl]-8-(1H-pyrazol-5-yl)-1,7-naphthyridin-4-yl}phosphinate] was tested. Which IC50 [1, 7] did it give?
Answer: 17.2 nM

Question: And the IC50 [2]?
Answer: 541 nM

Question: What about the IC50 [6] of the same molecule?
Answer: 2630 nM

Question: What about the IC50 [4] of the same molecule?
Answer: 764 nM

Question: How did the IC50 [1, 7] turn out when Cc1ccc2c(c1)cc(-c1cc(N3CCOCC3)nc3c(-c4ccn[nH]4)nccc13)n2C(=O)OC(C)(C)C [Example 377, tert-butyl 5-methyl-2-[2-(morpholin-4-yl)-8-(1H-pyrazol-5-yl)-1,7-naphthyridin-4-yl]-1H-indole-1-carboxylate] was run?
Answer: 2990 nM

Question: With Cc1nn(C)c(C)c1-c1cc(N2CCOCC2)nc2c(-c3ccn[nH]3)nccc12 [Example 273, 2-(morpholin-4-yl)-8-(1H-pyrazol-5-yl)-4-(1,3,5-trimethyl-1H-pyrazol-4-yl)-1,7-naphthyridine] as the molecule, how does the IC50 [1, 7] read?
Answer: 14 nM

Question: For CCn1cc(-c2cc(N3CCOC[C@H]3C)nc3c(-c4ccn[nH]4)nccc23)cn1 [Example 261, 4-(1-ethyl-1H-pyrazol-4-yl)-2-[(3R)-3-methylmorpholin-4-yl]-8-(1H-pyrazol-5-yl)-1,7-naphthyridine], which IC50 [1, 7] is on record?
Answer: 29.2 nM

Question: How did the IC50 [1, 7] turn out when C[C@@H]1COCCN1c1cc(N=S2(=O)CCOCC2)c2ccnc(-c3ccn[nH]3)c2n1 [Example 64, N-{2-[(3R)-3-methylmorpholin-4-yl]-8-(1H-pyrazol-5-yl)-1,7-naphthyridin-4-yl}-1,4λ^4-oxathian-4-imine 4-oxide] was run?
Answer: 27.4 nM

Question: Which results are given for c1cc2c(C3CCOCC3)cc(N3CCOCC3)nc2c(-c2cc[nH]n2)n1 [Example 60, 2-(morpholin-4-yl)-8-(1H-pyrazol-5-yl)-4-(tetrahydro-2H-pyran-4-yl)-1,7-naphthyridine]?
Answer: IC50 [1, 7]: 24.1 nM; IC50 [1, 8]: 15.7 nM

Question: For C[C@@H]1COCCN1c1cc(C(C)(O)C2CCOCC2)c2ccnc(-c3ccn[nH]3)c2n1 (stereo partly drawn) [Example 282, 1-{2-[(3R)-3-methylmorpholin-4-yl]-8-(1H-pyrazol-5-yl)-1,7-naphthyridin-4-yl}-1-(tetrahydro-2H-pyran-4-yl)ethanol], which IC50 [1, 7] is on record?
Answer: 12.7 nM

Question: C[C@@H]1COCCN1c1cc(N=S(C)(=O)c2ccccc2O)c2ccnc(-c3ccn[nH]3)c2n1 (stereo partly drawn) [Example 276, 2-(methyl-N-{2-[(3R)-3-methylmorpholin-4-yl]-8-(1H-pyrazol-5-yl)-1,7-naphthyridin-4-yl}sulfonimidoyl)phenol] was tested. Which IC50 [1, 7] did it give?
Answer: 237 nM

Question: How did the IC50 [1, 7] turn out when Cc1ccsc1-c1cc(N2CCOC[C@H]2C)nc2c(-c3ccn[nH]3)nccc12 [Example 99, 2-[(3R)-3-methylmorpholin-4-yl]-4-(3-methyl-2-thienyl)-8-(1H-pyrazol-5-yl)-1,7-naphthyridine] was run?
Answer: 6.38 nM

Question: With C[C@@H]1COCCN1c1cc(C2CC2)c2ccnc(-c3cc[nH]n3)c2n1 [Example 29, 4-cyclopropyl-2-((R)-3-methylmorpholin-4-yl)-8-(1H-pyrazol-3-yl)-[1,7]-naphthyridine] as the molecule, how does the IC50 [1, 7] read?
Answer: 21.5 nM

Question: And the IC50 [1, 8]?
Answer: 9.23 nM

Question: How did the IC50 [1, 7] turn out when Fc1ccccc1-c1cc(N2CCOCC2)nc2c(-c3ccn[nH]3)nccc12 [Example 327, 4-(2-fluorophenyl)-2-(morpholin-4-yl)-8-(1H-pyrazol-5-yl)-1,7-naphthyridine] was run?
Answer: 17.7 nM

Question: Which IC50 [1, 7] does the source give for C[C@@H]1COCCN1c1cc(C2CCNCC2)c2ccnc(-c3ccn[nH]3)c2n1 [Example 251, 2-[(3R)-3-methylmorpholin-4-yl]-4-(piperidin-4-yl)-8-(1H-pyrazol-5-yl)-1,7-naphthyridine] here?
Answer: 27.5 nM

Question: How did the IC50 [1, 7] turn out when CC(C)c1ccc(-c2cc(N3CCOCC3)nc3c(-c4ccn[nH]4)nccc23)cc1 [Example 329, 2-(morpholin-4-yl)-4-[4-(propan-2-yl)phenyl]-8-(1H-pyrazol-5-yl)-1,7-naphthyridine] was run?
Answer: 169 nM

Question: How did the IC50 [1, 7] turn out when C[C@@H]1COCCN1c1cc(-c2ccnn2C2COC2)c2ccnc(-c3ccn[nH]3)c2n1 [Example 133, 2-[(3R)-3-methylmorpholin-4-yl]-4-[1-(oxetan-3-yl)-1H-pyrazol-5-yl]-8-(1H-pyrazol-5-yl)-1,7-naphthyridine] was run?
Answer: 27 nM

Question: Which IC50 [1, 7] does the source give for C[C@@H]1CN(c2cc(N3CCOCC3)nc3c(-c4ccn[nH]4)nccc23)CCO1 [Example 162, 4-[(2R)-2-methylmorpholin-4-yl]-2-(morpholin-4-yl)-8-(1H-pyrazol-5-yl)-1,7-naphthyridine] here?
Answer: 100 nM

Question: Which IC50 [1, 7] does the source give for C[C@@H]1COCCN1c1cc(OCCCN)c2ccnc(-c3ccn[nH]3)c2n1 [Example 193, 3-({2-[(3R)-3-methylmorpholin-4-yl]-8-(1H-pyrazol-5-yl)-1,7-naphthyridin-4-yl}oxy)propan-1-amine] here?
Answer: 245 nM

Question: For CN1CCN(c2cc(N3CCOCC3)nc3c(-c4ccn[nH]4)nccc23)CC1 [Example 182, 4-(4-methylpiperazin-1-yl)-2-(morpholin-4-yl)-8-(1H-pyrazol-5-yl)-1,7-naphthyridine], which IC50 [1, 7] is on record?
Answer: 632 nM

Question: How did the IC50 [1, 7] turn out when CCOc1ncccc1-c1cc(N2CCOCC2)nc2c(-c3ccn[nH]3)nccc12 [Example 383, 4-(2-ethoxypyridin-3-yl)-2-(morpholin-4-yl)-8-(1H-pyrazol-5-yl)-1,7-naphthyridine] was run?
Answer: 239 nM

Question: For CC(C)Nc1cc(N2CCOCC2)nc2c(-c3ccn[nH]3)nccc12 [Example 208, 2-(morpholin-4-yl)-N-(propan-2-yl)-8-(1H-pyrazol-5-yl)-1,7-naphthyridin-4-amine], which IC50 [1, 7] is on record?
Answer: 1160 nM

Question: Which IC50 [1, 7] does the source give for C[C@@H]1COCCN1c1cc(-c2cc(Cl)cnc2F)c2ccnc(-c3ccn[nH]3)c2n1 [Example 229, 4-(5-chloro-2-fluoropyridin-3-yl)-2-[(3R)-3-methylmorpholin-4-yl]-8-(1H-pyrazol-5-yl)-1,7-naphthyridine] here?
Answer: 28.4 nM

Question: Which IC50 [1, 7] does the source give for C[C@@H]1COCCN1c1cc(-c2cc(C(F)(F)F)nn2C)c2ccnc(-c3ccn[nH]3)c2n1 [Example 98, 2-[(3R)-3-methylmorpholin-4-yl]-4-[1-methyl-3-(trifluoromethyl)-1H-pyrazol-5-yl]-8-(1H-pyrazol-5-yl)-1,7-naphthyridine] here?
Answer: 13.1 nM
